{
  "source": "paper PMC10005750",
  "about": "(Molecules, 2023)",
  "key": {"[1]": {"assay": "Pharmacokinetic interaction study after oral administration of DPZ and TAD, alone or in combination, in rats", "conditions": "rat; for CL/F (apparent systemic clearance): tadalafil 0.3 mg/kg oral, n = 3, mean ± SD", "method": "The rat plasma was stored at −70 °C. The plasma samples were thawed at room temperature and then centrifuged at 1800× g (4 °C) for 8 min before pipetting. Using a micropipette, 30 µL of the plasma sample was transferred into a polypropylene microtube, and 10 µL of IS working solution was added to each sample. Further, 0.2 mL of acetonitrile was then added and vortexed for 1 min. […] The supernatant was transferred to an analytical vessel, and 2 µL of the sample was injected into the LC-MS/MS system.\nRats were divided into three groups (n = 3): group 1, DPZ (3 mg/kg); group 2, TAD (0.3 mg/kg); and group 3, DPZ (3 mg/kg) combined with TAD (0.3 mg/kg). Animals were fasted overnight and allowed free access to water.\nThe peak plasma concentration, Cmax, and Tmax (the time to reach Cmax) for DPZ and TAD were calculated using individual plasma concentration–time profiles. […] The terminal half-life (T1/2) was calculated as ln 2/λz (λz is the elimination rate constant estimated by using the least-squares linear regression method of the terminal log-linear portion of the plasma concentration–time curve). The apparent clearance (CL/F) was calculated as CL/F = dose/AUC0-∞. The Mann–Whitney U test was used to determine the differences in the mean plasma concentration and PK profiles of DPZ and TAD between the single and combined administration groups. Statistical analysis was performed using SPSS Statistics (version 26.0; IBM SPSS Statistics for Windows, Armonk, NY, USA), and a p-value < 0.05 was considered statistically significant."}, "[2]": {"assay": "Plasma sample stability at low and high QC under storage and handling conditions", "method": "Standard stock solutions of DPZ, TAD, and LPZ (IS) were prepared in methanol at a concentration of 100 µg/mL and stored at −20 °C. Working solutions were prepared by diluting the stock solutions with 50% methanol. The concentration of DPZ and TAD ranged from 1 to 200 ng/mL. […] The IS working solution was prepared by diluting the stock solution with 50% methanol to a concentration of 20 ng/mL. All working stock solutions were prepared and stored at −20 °C until use. Calibration standards and QC samples of DPZ and TAD in rat plasma were diluted with the corresponding working solutions and blank rat plasma. Drug-free plasma, that is, control (blank) plasma, stored in a deep freezer, was completely thawed at room temperature before use. Ten percent spiking with working DPZ and TAD stock solutions was performed in blank plasma. The spiked QC samples were stored at −70 °C for stability studies.\nStability analyses of the stock solutions were performed at room temperature for 3 h and under refrigerated conditions (4 °C) for 14 days. The stability of the plasma analytes was tested for low and high QC under pre-specified conditions: room temperature for 5 h, refrigeration (4 °C) for 14 days, autosampler (10 °C) for 20 h, four cycles of freezing-thawing, and finally frozen conditions (−70 °C) for 28 days for long-term stability."}, "[3]": {"conditions": "male, Sprague-Dawley, plasma, po"}, "[4]": {"conditions": "male, Sprague-Dawley, plasma, po, 0.3 mg/kg"}},
  "data": [
    {"smiles": "CN1CC(=O)N2[C@H](c3ccc4c(c3)OCO4)c3[nH]c4ccccc4c3C[C@@H]2C1=O", "note": "[Tadalafil, tadalafil]", "values": [
      {"measurement": "Tmax", "setting": "[1]; [3]", "result": 0.5, "unit": "h"},
      {"measurement": "half-life", "setting": "[1]; [3]", "result": "1.96 ± 0.212", "unit": "h"},
      {"measurement": "AUC(0-inf)", "setting": "[1]; [4]", "result": "50.4 ± 23.6", "unit": "ng·h/mL"},
      {"measurement": "AUC(0-t)", "setting": "[1]; [4]", "result": "47 ± 24.4", "unit": "ng·h/mL"},
      {"measurement": "Cmax", "setting": "[1]; [4]", "result": "17.8 ± 6", "unit": "ng/mL"},
      {"measurement": "MRT last", "setting": "[1]; [4]", "result": "2.53 ± 0.214", "unit": "h"},
      {"measurement": "Tmax", "setting": "[1]; [4]", "result": 0.5, "unit": "h"},
      {"measurement": "half-life", "setting": "[1]; [4]", "result": "1.52 ± 0.12", "unit": "h"},
      {"measurement": "CL/F (apparent systemic clearance)", "setting": "[1]; alone", "result": "7.355 ± 4.516", "unit": "L/h"},
      {"measurement": "CL/F (apparent systemic clearance)", "setting": "[1]; with DPZ 3 mg/kg", "result": "11.819 ± 9.852", "unit": "L/h"},
      {"measurement": "Plasma sample stability (Mean ± SD, %)", "setting": "[2]; extracted rat plasma sample, autosampler (10 °C, 20 h), nominal 2 ng/mL", "result": "99.63 ± 6.03", "unit": "%"},
      {"measurement": "Plasma sample stability (Mean ± SD, %)", "setting": "[2]; extracted rat plasma sample, autosampler (10 °C, 20 h), nominal 160 ng/mL", "result": "102.18 ± 3.98", "unit": "%"},
      {"measurement": "Plasma sample stability (Mean ± SD, %)", "setting": "[2]; rat plasma, freeze-thaw (4 cycles), nominal 2 ng/mL", "result": "95.15 ± 2.69", "unit": "%"},
      {"measurement": "Plasma sample stability (Mean ± SD, %)", "setting": "[2]; rat plasma, freeze-thaw (4 cycles), nominal 160 ng/mL", "result": "103.60 ± 1.55", "unit": "%"},
      {"measurement": "Plasma sample stability (Mean ± SD, %)", "setting": "[2]; rat plasma, refrigeration (4 °C, 14 days), nominal 2 ng/mL", "result": "93.52 ± 3.03", "unit": "%"},
      {"measurement": "Plasma sample stability (Mean ± SD, %)", "setting": "[2]; rat plasma, refrigeration (4 °C, 14 days), nominal 160 ng/mL", "result": "107.44 ± 5.73", "unit": "%"},
      {"measurement": "Plasma sample stability (Mean ± SD, %)", "setting": "[2]; rat plasma, room temperature (5 h), nominal 2 ng/mL", "result": "95.75 ± 4.54", "unit": "%"},
      {"measurement": "Plasma sample stability (Mean ± SD, %)", "setting": "[2]; rat plasma, room temperature (5 h), nominal 160 ng/mL", "result": "95.18 ± 0.41", "unit": "%"},
      {"measurement": "Plasma sample stability (Mean ± SD, %)", "setting": "[2]; rat plasma, −70 °C (28 days), nominal 2 ng/mL", "result": "99.17 ± 3.88", "unit": "%"},
      {"measurement": "Plasma sample stability (Mean ± SD, %)", "setting": "[2]; rat plasma, −70 °C (28 days), nominal 160 ng/mL", "result": "104.42 ± 4.78", "unit": "%"},
      {"measurement": "stability in rat plasma under all examined conditions", "setting": "[2]; rat, plasma", "result": "stable"}
    ]}
  ]
}
